Holding throughout (assay type): cell-based, Pseudomonas putida
For assay [1], the system named is strain no. 3 carrying plasmid pYI433 containing the wild-type rpsL gene. Nature of the assay: Complementation experiment, streptomycin resistance. The settings on record: strain no. 3 carrying pYI433; about the same as wild-type levels. From the text:
To clone the rpsL gene, a 0.9-kb DNA region covering whole rpsL was amplified from the chromosomal DNA of P. putida KH146-2 using KDO DNA polymerase (Toyobo Biochemicals, Osaka). Oligonucleotide primers were designed according to the rpoC-rpsL-rpsG sequence of P. putida KT2440 (www.tigr.org); 5′-[…]-3′ (SEQ ID NO:7—nucleotides [nt]−368 to −341 upstream of rpsL) and 5′-[…]-3′ (SEQ ID NO:8—complementary to nt 107 to 135 downstream of rpsL). The amplified DNA fragments were cloned into plasmid pUC118 (Vieira and Messing, (1987) Methods Enzymol 153: 3–11) to confirm the sequence, then excised from the plasmids as a BamHI-SphI fragment using the restriction sites in the multi-cloning sequence of the vector and inserted between the BglII and SphI sites of the E. coli-Pseudomonas shuttle vector pNIT6010 carrying tet^R, a derivative of pNIT6011 (Nishijyo et al. (2001) Mol Microbiol 40:917–931). The resultant plasmid pYI433, as well as vector control pNIT6010, was introduced into the Str mutant no. 3 (str-1) by conjugation using E. coli HB101/pRK2013 as the helper (Comai et al. (1983) Plasmid 10:21–30). Fifty μg ml^−1 of tetracycline was used for selection of transformants.
[…]

Assay [2] deals with P. putida strain no. 10 (str-1). Description: Resistance level to antibiotic on LB agar. The settings on record: 1 days on LB agar. From the text:
(§1) Spontaneous streptomycin-resistant (Str), gentamicin-resistant (Gen) or rifampicin-resistant (Rif) mutants were obtained from colonies that grew within 3 days after wild-type cells were spread on LB agar containing various concentrations of antibiotic.

Assay [3] relates to P. putida strain no. 5 (str-1). Nature of the assay: Resistance level to antibiotic on LB agar. To be noted: 1 days on LB agar.
From the text: as §1

Assay [4] concerns P. putida strain no. 4 (str-1). Nature of the assay: Resistance level to antibiotic on LB agar. The settings on record: 1 days on LB agar.
From the text: as §1

In assay [5] the test system is P. putida strain no. 3 (str-1). Nature of the assay: Resistance level to antibiotic on LB agar. To be noted: 1 days on LB agar.
From the text: as §1

Assay [6] deals with P. putida strain no. 6 (str-1). Nature of the assay: Resistance level to antibiotic on LB agar. The settings on record: 1 days on LB agar.
From the text: as §1

The subject of assay [7] is P. putida strain no. 9 (str-2). Description: Resistance level to antibiotic on LB agar. The settings on record: 1 days on LB agar.
From the text: as §1

Assay [8] concerns P. putida strain no. 2 (str-1). Nature of the assay: Resistance level to antibiotic on LB agar. The settings on record: 1 days on LB agar.
From the text: as §1

Assay [9] relates to P. putida strain no. 8 (str-1). Description: Resistance level to antibiotic on LB agar. To be noted: 1 days on LB agar.
From the text: as §1

The subject of the next assay is parental strain KH146-2. Description: Antibiotic growth suppression on LB agar.
From the text: as §1
We first isolated a number of spontaneous streptomycin-resistant (Str), gentamicin-resistant (Gen) and rifampicin-resistant (Rif) mutants of P. putida KH146-2. These mutants appeared at a frequency of 10^−5–10^−6 when KH146-2 cells were spread on LB agar containing various amounts of antibiotics. […] Forty mutants resistant to each antibiotic were randomly selected and examined for tolerance to 4-hydroxybenzoic acid (4HBA). 4HBA-tolerant strains, which could grow in the presence of 1% 4HBA, were detected among these antibiotic resistant mutants at a high frequency of 3 to 15% (Table 1). The highest frequency (15%) was detected in the mutants selected with 1000 μg ml^−1 of streptomycin. These 4HBA-tolerant isolates all grew as well as the parent strain on LB agar.

The test system of assay [10] is the eight Str mutants with increased tolerance to 4HBA. Nature of the assay: Resistance level to streptomycin, Str mutants as a group.
From the text: as §1
Streptomycin resistance frequently results from a mutation in the rpsL gene for the ribosomal protein S12 (Hosoya et al., ((1998) Antimirob Agents Chemother 42:204–2047); Inaoka et al., ((2001) J Bacteriol 183:4958–4963); Shima et al., ((1996) J Bacterial 178:7276–7284)). Rifampicin resistance results from a mutation in the rpoB gene (β-subunit of RNA polymerase) (Heep et al., ((1999) Antimicrob Agents Chemother 43:1497–1499); Jin and Gross, ((1988) J Mol Biol 202:45–58); Wichelhaus et al., ((1999) Antimicrob Agents Chemother 43:2813–2816); Hu et al., ((2002) J Bacteriol 184: 3984–3991)). We therefore sequenced and compared the rpsL gene and rpoB gene from the mutants to the wild-type strain.

Each structure is given as a SMILES string.

As to `[H]/N=C(/N)N[C@H]1[C@H](O)[C@@H](O)[C@H](O[C@@H]2O[C@@H](C)[C@](O)(C=O)[C@H]2O[C@@H]2O[C@@H](CO)[C@H](O)[C@@H](O)[C@@H]2NC)[C@@H](N/C(N)=N\[H])[C@@H]1O` [streptomycin], the “levels of Str (streptomycin resistance)” value in assay [1] lay in the range of 100 to 200 µg/mL. Also, the “Resistance level to antibiotic” value in assay [2], in assay [3], in [4], in assay [5], in assay [6] and in [7] was >100,000 (STR) μg ml^−1 throughout. Further, the “Resistance level to antibiotic” value in [8] and in assay [9] was >100,000 (STR) μg ml^−1 each time. Moreover, the “Concentration completely suppressing growth” value in the assay with parental strain KH146-2 turned out to be 100 µg/mL. Further, the “level of resistance to streptomycin” value in assay [10] was over 100 mg/mL. In assay [10], the “resistance compared to the wild-type strain” value is over 1000 fold.
